Experimental data from patent US8003799B2, “Picolinic acid derivatives and their use as fungicides” (Bayer SAS, priority 2000, dated 2011).

Experiments:
Septoria tritici = assay: In vivo test on Septoria tritici (septoria disease of wheat); conditions: dose of 500 g/ha; wheat plants (Scipion variety) sprayed 24 hours before contamination; grading 15 to 20 days after contamination vs control plants
Protocol: In Vivo Test on Septoria Tritici (Septoria Disease of Wheat) […] Wheat plants (Scipion variety) in starter cups, sown on a 50/50 peat soil-pozzolana substrate and grown at 12° C., are treated at the 1-leaf stage (10 cm tall) by spraying with the aqueous suspension described above. Plants, used as controls, are treated with an aqueous solution not containing the active material. After 24 hours, the plants are contaminated by spraying them with an aqueous suspension of Septoria tritici spores (500,000 spores per mL). The spores are collected from a 15-day-old culture and are suspended in a nutrient solution composed of: • 1.5 g/L of gelatin • 0.5 g/L of sodium oleate • 24 g/L of PDB The contaminated wheat plants are incubated for 72 hours at about 20° C. and at 100% relative humidity, and then for 15 days at 80% relative humidity. Grading is carried out 15 to 20 days after the contamination, in comparison with the control plants.

[1] = tested on: Erisyphe graminis f. sp. tritici; assay: In vivo test on Erisyphe graminis f. sp. tritici (powdery mildew of wheat); conditions: dose of 500 g/ha; wheat plants (Audace variety) sprayed 24 hours before contamination; grading 7 to 14 days after contamination vs control plants
Protocol: In Vivo Test on […] Graminis f. Sp. Tritici (Powdery Mildew of Wheat) […] Wheat plants (Audace variety) in starter cups, sown on 50/50 peat soil-pozzulana substrate and grown at 12° C., are treated at the 1-leaf stage (10 cm tall) by spraying with the aqueous suspension described above. Plants, used as controls, are treated with an aqueous solution not containing the active material. After 24 hours, the plants are contaminated by dusting them with […] graminis f. sp. tritici spores, the dusting being carried out using diseased plants. Grading is carried out 7 to 14 days after the contamination, in comparison with the control plants.

Nc1ccnc(C(=O)Nc2ccc(Oc3ccc(C(F)(F)F)cc3)cc2)c1O [Compound 108, 4-amino-3-hydroxy-N-para-[4-(trifluoromethyl)phenoxy]phenylpicolinamide]
good (at least 50%) protection (Septoria tritici): at least 50%
good (at least 50%) or total protection [1]: at least 50%
